14 compounds from PubChem BioAssay (NCI) can be followed below.

Among the test systems are EKVX NSCLC; MALME-3M melanoma; HOP-62 NSCLC; 786-0 renal; SK-MEL-28 melanoma; SNB-19 CNS; OVCAR-5 ovarian; IGROV1 ovarian.
What all share (assay): NCI anticancer screen, dose series, 48 h

Structures are written as SMILES.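 Briefly, cells in 96-well plates were exposed to five compound concentrations for 48 h, and endpoints were estimated by linear interpolation. The concentration for 50% growth inhibition is given as GI50. Definition used: TGI = concentration required for complete inhibition of growth.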 A value given as a limit tells only on which side of the number the result lay.

In the case of `Cc1cnc(Nc2ccc(N3CCN(C)CC3)cc2)nc1Nc1ccc(Cl)c(NS(=O)(=O)C(C)(C)C)c1`, the GI50 is 0.311 µM in the assay on EKVX NSCLC; 0.69 µM in the assay with MALME-3M melanoma; 0.262 µM in the assay with HOP-62 NSCLC; 0.208 µM with 786-0 renal; 0.772 µM in the assay on SK-MEL-28 melanoma; 1.34 µM with SNB-19 CNS. The GI50 with OVCAR-5 ovarian is 0.219 µM; with IGROV1 ovarian it was 0.154 µM. For the same compound, the TGI came to 4.4 µM in the assay with EKVX NSCLC; 2.62 µM in the assay with MALME-3M melanoma; 3.73 µM with HOP-62 NSCLC; 1.82 µM with 786-0 renal; 2.73 µM with SK-MEL-28 melanoma; 18.5 µM in the assay with SNB-19 CNS. In addition, the TGI came out at 13.4 µM in the assay on OVCAR-5 ovarian and 2.66 µM in the assay on IGROV1 ovarian.

Regarding `COc1cc(/C=C/c2cc(/C=C/c3ccc(O)c(OC)c3)n(C(=O)Nc3ccc(Cl)cc3)n2)ccc1O`, the GI50 in the assay on EKVX NSCLC is 1.61 µM; with MALME-3M melanoma it was 0.76 µM; with HOP-62 NSCLC it was 0.537 µM; in the assay with 786-0 renal, 0.515 µM; with SK-MEL-28 melanoma, 1.07 µM; in the assay on SNB-19 CNS it was 0.664 µM. The GI50 in the assay on OVCAR-5 ovarian was 2.47 µM; in the assay on IGROV1 ovarian it was 0.661 µM. In addition, the TGI with EKVX NSCLC was found to be 9.62 µM; in the assay with MALME-3M melanoma, 3.96 µM; in the assay on HOP-62 NSCLC, 1.85 µM; in the assay on 786-0 renal it was 1.85 µM; with SK-MEL-28 melanoma, 4.07 µM; in the assay with SNB-19 CNS, 11.1 µM. The TGI in the assay with OVCAR-5 ovarian came to 7.52 µM; in the assay with IGROV1 ovarian it was 4.66 µM.

For the compound `CN(C)c1ccc(C(c2ccc(Cl)cc2)c2ccc(N(C)C)cc2)cc1`, the TGI in the assay with EKVX NSCLC, in the assay with MALME-3M melanoma, in the assay on HOP-62 NSCLC, in the assay on 786-0 renal, in the assay on SK-MEL-28 melanoma and in the assay on SNB-19 CNS was more than 100 µM in each case. Also, the TGI in the assay with OVCAR-5 ovarian and in the assay on IGROV1 ovarian was more than 100 µM each time.

As for `COc1cccc(C2C3=C(COC3=O)N(CCO)c3cc4c(cc32)OCO4)c1` (stereo not given), the GI50 with EKVX NSCLC was 1.03 µM; in the assay with HOP-62 NSCLC it was 0.598 µM; in the assay with 786-0 renal it was 0.37 µM; in the assay on SK-MEL-28 melanoma, more than 50 µM; with OVCAR-5 ovarian, 2.03 µM; with IGROV1 ovarian, 0.154 µM. Moreover, the TGI with EKVX NSCLC is more than 50 µM; with MALME-3M melanoma, more than 50 µM; in the assay with HOP-62 NSCLC, more than 50 µM; in the assay with 786-0 renal it was more than 50 µM; with SK-MEL-28 melanoma, more than 50 µM; in the assay on SNB-19 CNS, more than 10.6 µM. Moreover, the TGI in the assay with OVCAR-5 ovarian is more than 50 µM; in the assay on IGROV1 ovarian it was 1.64 µM.

Regarding `O=C(/C=C/C12c3ccccc3C(c3ccccc31)C1C(=O)NC(=O)C12)c1ccc(Cl)cc1` (stereo not given), the GI50 with EKVX NSCLC is 1.43 µM; in the assay on MALME-3M melanoma it was 1.51 µM; in the assay on HOP-62 NSCLC, 1.69 µM; in the assay with 786-0 renal, 1.73 µM; with SK-MEL-28 melanoma, 1.8 µM; with SNB-19 CNS, 1.58 µM. For the same compound, the GI50 in the assay with OVCAR-5 ovarian is 1.58 µM; in the assay on IGROV1 ovarian, 1.67 µM. In addition, the TGI was 2.87 µM in the assay with EKVX NSCLC; 2.88 µM in the assay on MALME-3M melanoma; 3.39 µM with HOP-62 NSCLC; 3.16 µM in the assay on 786-0 renal; 3.37 µM in the assay on SK-MEL-28 melanoma; 3.04 µM in the assay on SNB-19 CNS. Also, the TGI in the assay with OVCAR-5 ovarian is 3.35 µM; with IGROV1 ovarian, 3.4 µM.

On to `CN1CCN(Cc2ccc3c(NNC(=O)c4ccccc4)nc4cc(F)ccc4n23)CC1`, for which the GI50 in the assay on EKVX NSCLC was 0.17 µM; in the assay on MALME-3M melanoma it was 0.584 µM; with HOP-62 NSCLC it was 0.27 µM; in the assay on 786-0 renal, 0.376 µM; in the assay on SK-MEL-28 melanoma, 0.566 µM; with SNB-19 CNS, 0.587 µM. For the same compound, the values for the GI50 in the assay on OVCAR-5 ovarian and in the assay on IGROV1 ovarian were 0.735 µM and 0.487 µM, respectively. Also, the TGI in the assay with EKVX NSCLC was 16 µM; with MALME-3M melanoma it was 12.7 µM; with HOP-62 NSCLC, more than 100 µM; in the assay on 786-0 renal it was 17.8 µM; in the assay with SK-MEL-28 melanoma, 17.8 µM; in the assay on SNB-19 CNS, more than 100 µM. Further, the TGI in the assay on OVCAR-5 ovarian was 70.2 µM; with IGROV1 ovarian, 49.2 µM.

On to `C=C(C)C(=O)O[C@@H]1C/C(C)=C\[C@H](OC(C)=O)C[C@](C)(O)/C=C2/OC(=O)C(COC(C)=O)=C21`, for which the TGI in the assay with EKVX NSCLC is 2.07 µM; in the assay with MALME-3M melanoma, 0.979 µM; in the assay on HOP-62 NSCLC, more than 100 µM; with 786-0 renal, 6.03 µM; in the assay on SK-MEL-28 melanoma, 0.762 µM; in the assay on SNB-19 CNS, 41.8 µM. Further, the TGI in the assay with OVCAR-5 ovarian came to 4.55 µM; with IGROV1 ovarian, 3 µM.

Turning to `O=S(=O)(Nc1ccc(F)c(Cl)c1)c1ccc(-c2cnc(C3CC3)o2)cc1`, the GI50 with EKVX NSCLC was 0.609 µM; in the assay with MALME-3M melanoma, 0.589 µM; in the assay on HOP-62 NSCLC, 0.453 µM; in the assay with 786-0 renal it was 0.495 µM; in the assay with SK-MEL-28 melanoma, 1.73 µM; in the assay on SNB-19 CNS, 0.389 µM. Besides, the GI50 is 0.798 µM with OVCAR-5 ovarian and 0.418 µM with IGROV1 ovarian. Besides, the TGI in the assay on EKVX NSCLC worked out at 11.9 µM; in the assay with MALME-3M melanoma it was 16.1 µM; in the assay with HOP-62 NSCLC, 14.4 µM; with 786-0 renal, 13.1 µM; with SK-MEL-28 melanoma, 14.5 µM; in the assay with SNB-19 CNS, 13.7 µM. Besides, the TGI in the assay on OVCAR-5 ovarian is 13.4 µM; in the assay on IGROV1 ovarian it was 12.3 µM.

As for `Nc1nc(N)c2cc(Sc3cccc(C(F)(F)F)c3)ccc2n1`, the TGI in the assay on EKVX NSCLC was found to be 19.8 µM; with MALME-3M melanoma it was 2.91 µM; in the assay with HOP-62 NSCLC it was 15.9 µM; in the assay on 786-0 renal it was 5.38 µM; in the assay on SK-MEL-28 melanoma, 7.61 µM; in the assay with SNB-19 CNS, 18.4 µM. Moreover, the TGI is 16.3 µM in the assay with OVCAR-5 ovarian and 15.6 µM in the assay on IGROV1 ovarian.

With `N#CN1CC[C@H](C(=O)Nc2cc3cc(C(N)=O)ccc3cn2)C1`, the GI50 in the assay with EKVX NSCLC was 0.258 µM; with MALME-3M melanoma it was 0.0239 µM; with HOP-62 NSCLC it was 0.172 µM; in the assay on 786-0 renal it was 0.222 µM; in the assay on SK-MEL-28 melanoma, 0.117 µM; in the assay on SNB-19 CNS, 0.144 µM. The GI50 is 0.51 µM with OVCAR-5 ovarian and 0.387 µM with IGROV1 ovarian. In addition, the TGI in the assay on EKVX NSCLC is 6.87 µM; in the assay on MALME-3M melanoma, 0.152 µM; in the assay on HOP-62 NSCLC, 3.5 µM; with SK-MEL-28 melanoma, 9.41 µM; in the assay on SNB-19 CNS it was more than 100 µM; in the assay with OVCAR-5 ovarian, more than 68.4 µM. Further, the TGI in the assay on IGROV1 ovarian is more than 25.3 µM.

Regarding `Nc1nc(=O)n([C@@H]2CS[C@H](CO)O2)cc1F`, the GI50 in the assay on EKVX NSCLC, with MALME-3M melanoma, in the assay with HOP-62 NSCLC, with 786-0 renal, in the assay on SK-MEL-28 melanoma and with SNB-19 CNS was more than 100 µM throughout. Also, the GI50 with OVCAR-5 ovarian and in the assay on IGROV1 ovarian was more than 100 µM throughout. Also, the TGI in the assay with EKVX NSCLC, in the assay with MALME-3M melanoma, with HOP-62 NSCLC, in the assay with 786-0 renal, with SK-MEL-28 melanoma and in the assay with SNB-19 CNS was more than 100 µM in each case. The TGI with OVCAR-5 ovarian and in the assay on IGROV1 ovarian was more than 100 µM throughout.

As for `CCOC(=O)/C=C/C(=O)[C@H](CC(C)C)NC(=O)[C@H](Cc1ccccc1)NC(=O)OCc1ccccc1`, the GI50 in the assay on EKVX NSCLC was 15.6 µM; in the assay on MALME-3M melanoma it was 3.89 µM; in the assay with HOP-62 NSCLC, 14.4 µM; in the assay on 786-0 renal, 1.84 µM; with SK-MEL-28 melanoma it was 3.12 µM; in the assay with SNB-19 CNS, 12.6 µM. Also, the GI50 with OVCAR-5 ovarian was 14.3 µM; in the assay with IGROV1 ovarian, 2.32 µM. Further, the TGI is 29 µM with EKVX NSCLC; 15.3 µM in the assay on MALME-3M melanoma; 29.6 µM with HOP-62 NSCLC; 3.4 µM in the assay on 786-0 renal; 12 µM with SK-MEL-28 melanoma; 28.1 µM in the assay on SNB-19 CNS. Also, the TGI was 31.1 µM in the assay on OVCAR-5 ovarian and 4.89 µM in the assay on IGROV1 ovarian.

`C#COc1cccc(Nc2ncnc3cc(NC(=O)[C@H](C)Cl)ccc23)c1`: the GI50 was 17.4 µM with EKVX NSCLC; 4.07 µM in the assay with MALME-3M melanoma; 6.35 µM in the assay on HOP-62 NSCLC; 3.24 µM with 786-0 renal; 4.71 µM in the assay with SK-MEL-28 melanoma; 4.72 µM in the assay with SNB-19 CNS. Moreover, the GI50 was 3.84 µM with OVCAR-5 ovarian and 2.35 µM with IGROV1 ovarian. In addition, the TGI in the assay with EKVX NSCLC, in the assay on MALME-3M melanoma, in the assay with HOP-62 NSCLC, with 786-0 renal, in the assay on SK-MEL-28 melanoma and in the assay on SNB-19 CNS was more than 62.5 µM throughout. The TGI in the assay on OVCAR-5 ovarian and in the assay on IGROV1 ovarian was more than 62.5 µM in each case.

`Cc1cc(Nc2cc(N3CCN(C)CC3)nc(Sc3ccc(NC(=O)C4CC4)cc3)n2)n[nH]1`: the GI50 in the assay on EKVX NSCLC is more than 10 µM; in the assay with MALME-3M melanoma, 4.85 µM; with HOP-62 NSCLC it was 2.99 µM; with 786-0 renal, more than 10 µM; in the assay on SK-MEL-28 melanoma it was 3.47 µM; in the assay with SNB-19 CNS, more than 10 µM. Besides, the GI50 in the assay on IGROV1 ovarian was 4.82 µM. The TGI in the assay with EKVX NSCLC, with MALME-3M melanoma, with HOP-62 NSCLC, in the assay on 786-0 renal, with SK-MEL-28 melanoma and in the assay with SNB-19 CNS was more than 10 µM in each case. The same compound returned a TGI in the assay on IGROV1 ovarian of more than 10 µM.
